Test results reported in US20050020638A1, “Method of stabilizing lansoprazole” (priority 2003, published 2005).
Where two headings read alike, the source gives them in different places.

What was measured:
[1] = Stability of stabilized vs. non-stabilized lansoprazole on storage (HPLC impurities and color); assay type: physicochemical; conditions: 40 °C, 75% humidity
Procedure: Chromatographic purity method of lansoprazole is detailed in the monograph in USP Forum Vol. 26 (5) [September-October 2000]. HPLC condition: Column C18 • Mobile phase: Gradient of triethylamine in water with acetonitrile • Flow: 0.8 ml/min • Detection: 285 nm Karl Fisher method for water determination is the USP method, 921. Ia, with the solvent: pyridine and ethylene glycol 9:1 as detailed in USP Forum Vol. 26 (5) [September-October 2000].

[2] = cited from earlier work
[3] = 1 month, lansoprazole of Example 2
[4] = 3 months, 'solvent free' lansoprazole of Example 3

Row | Compound | LNP-SO2 (sulfone derivative) after storage [1, 3] [%] | LNPS (sulfide derivative) after storage [1, 3] [%] | Total impurities after storage [1, 3] [%] | Color after storage [1, 4] | LNP-SO2 (sulfone derivative) after storage [1, 4] [%] | LNPS (sulfide derivative) after storage [1, 4] [%] | Total impurities after storage [1, 4] [%] | Color after storage [1, 3] | Color after storage ([2]; 4 months at 40 °C and 75% room humidity) | Color after storage ([2]; 4 months at 40 °C, absence of humidity)
1 | Cc1c(OCC(F)(F)F)ccnc1C[S+]([O-])c1nc2ccccc2[nH]1 (stereo not shown) [Lansoprazole not stabilized with ammonia, 2-[[3-methyl-4-(2,2,2-trifluoroethoxy)-2-pyridyl]methyl]sulfinyl-1H benzimidazole] | 0.04 | 0.03 | 0.15 | Brownish | 0.04 | 0.06 | 0.31 |  |  | 
2 | Cc1c(OCC(F)(F)F)ccnc1C[S+]([O-])c1nc2ccccc2[nH]1 (stereo not shown) [Lansoprazole stabilized with ammonia, 2-[[3-methyl-4-(2,2,2-trifluoroethoxy)-2-pyridyl]methyl]sulfinyl-1H benzimidazole] | 0.03 |  | 0.05 | white | 0.02 | 0.03 | 0.08 | white |  | 
3 | Cc1c(OCC(F)(F)F)ccnc1C[S+]([O-])c1nc2ccccc2[nH]1 (stereo not shown) [lansoprazole, (2-[[[3-methyl-4-(2,2,2-trifluoro-ethoxy)-2-pyridinyl]methyl]sulfinyl]-1H-benzimidazole)] |  |  |  |  |  |  |  |  | pale brown | pale yellowish brown
